Blank lines part the entries; values can stand above or below the molecule they belong to.
Tests used:
[1] = biological target: DP-IV (Homo sapiens, UniProt P27487); assay: Inhibition / affinity for DP-IV; assay type: biochemical
[2] = biological target: T1, DPIV (Rattus norvegicus, UniProt P14740); assay: DPIV assays on serum samples from rats; assay type: in vivo; settings: rat serum 1 hour after treatment; Ala-Pro-paranitroanalide substrate, pH 8
T1 construct: from tissue; host or cells: rat serum
T1 sequence (P14740 38-767 limits assumed): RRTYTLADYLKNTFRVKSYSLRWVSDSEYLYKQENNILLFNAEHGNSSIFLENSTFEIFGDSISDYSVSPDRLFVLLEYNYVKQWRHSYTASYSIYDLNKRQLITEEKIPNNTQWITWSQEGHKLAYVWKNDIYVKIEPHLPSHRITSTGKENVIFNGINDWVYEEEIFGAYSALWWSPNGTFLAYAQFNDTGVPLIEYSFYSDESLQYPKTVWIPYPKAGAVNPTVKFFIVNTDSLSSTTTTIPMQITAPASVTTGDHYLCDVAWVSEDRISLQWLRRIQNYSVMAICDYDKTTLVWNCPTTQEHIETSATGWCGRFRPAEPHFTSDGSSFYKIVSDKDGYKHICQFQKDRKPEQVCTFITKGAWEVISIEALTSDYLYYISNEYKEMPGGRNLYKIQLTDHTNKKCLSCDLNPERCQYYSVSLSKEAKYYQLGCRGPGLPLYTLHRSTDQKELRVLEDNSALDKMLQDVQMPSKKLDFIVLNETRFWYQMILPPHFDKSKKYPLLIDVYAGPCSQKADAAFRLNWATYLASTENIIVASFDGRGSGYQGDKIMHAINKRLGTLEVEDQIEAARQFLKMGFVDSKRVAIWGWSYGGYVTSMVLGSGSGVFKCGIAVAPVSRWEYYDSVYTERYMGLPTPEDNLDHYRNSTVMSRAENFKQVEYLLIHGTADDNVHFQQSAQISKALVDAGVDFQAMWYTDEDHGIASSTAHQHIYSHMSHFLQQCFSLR
Experimental: Four rats were used in this experiment: two females (#3 and #9) and two males (#10 and #11). Blood and plasma samples were collected from rats 1 hour after being treated with Cyclohexylglycine-boroAla. The collected serum samples were evaluated for DPPIV activity of Cyclohexylglycine-boroAla as follows: • 1. 2 mg of Ala-Pro-paranitroanalide (substrate) was dissolved in 20 ml 0.1 M HEPES pH 8, 0.14 M NaCl (buffer). • 2. Serum samples were diluted into substrate solution in the wells of a microtiter plate. For each sample, 10 uL of serum was diluted into 150 μL of substrate. • 3. A reading of the A410 in each well was recorded immediately after the dilution of serum into substrate, and again after approximately 1 hour. The time of data acquisition for each reading is recorded in the data file by the microplate reader software.
The rate of absorbance change was obtained by subtracting the first reading from the second and dividing by the reaction time to give DeltaA410/hr. The DPIV activity was plotted in units of DeltaA410 hr^−1μ^−1.

[3] = In vivo regulation of glucose metabolism
[4] = system: NOD mice; assay: Incidence of diabetes in NOD mice upon treatment with DPIV inhibitors; assay type: in vivo
Experimental: The experiment was started on 8-10 week old NOD mice. The mice were kept under VAF/SPF conditions and fed everyday with either Val-boro-Pro (0.034 mg/kg) or Cyclohexyl-boro-Ala (0.34 mg/kg) for 60 days and then observed for the development of spontaneous diabetes. The mice were tested for the excretion of sugar in urine and considered positive for diabetes when sugar was detected in the urine.

[5] = in vivo, cited from earlier work
[6] = chronic (>5 days) treatment, alone

DP-IV, sequence (P27487 whole entry): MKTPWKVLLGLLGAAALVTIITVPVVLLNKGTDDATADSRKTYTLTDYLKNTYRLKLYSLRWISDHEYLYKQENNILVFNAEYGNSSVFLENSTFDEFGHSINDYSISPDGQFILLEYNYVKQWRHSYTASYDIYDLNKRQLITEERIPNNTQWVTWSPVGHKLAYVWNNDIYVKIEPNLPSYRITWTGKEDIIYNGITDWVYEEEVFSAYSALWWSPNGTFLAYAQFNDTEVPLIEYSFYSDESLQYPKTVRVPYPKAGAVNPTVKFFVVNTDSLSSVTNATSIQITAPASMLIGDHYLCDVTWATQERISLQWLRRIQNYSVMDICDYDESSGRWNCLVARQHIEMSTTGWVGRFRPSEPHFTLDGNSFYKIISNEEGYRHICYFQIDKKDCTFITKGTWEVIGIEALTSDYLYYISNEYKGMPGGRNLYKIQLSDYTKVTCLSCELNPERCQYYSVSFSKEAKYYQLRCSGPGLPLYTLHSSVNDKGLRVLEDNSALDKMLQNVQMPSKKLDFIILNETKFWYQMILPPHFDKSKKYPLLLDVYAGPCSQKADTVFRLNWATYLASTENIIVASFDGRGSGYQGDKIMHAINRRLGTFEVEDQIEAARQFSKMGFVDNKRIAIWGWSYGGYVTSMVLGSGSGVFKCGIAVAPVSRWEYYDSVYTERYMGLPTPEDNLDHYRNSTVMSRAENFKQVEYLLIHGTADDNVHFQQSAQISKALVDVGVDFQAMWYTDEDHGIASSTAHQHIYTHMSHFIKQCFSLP

affinity for DP-IV [1]: no affinity
Molecule: CC(NC(=O)OC(C)(C)C)C(=O)N1CCCC1B(O)O (stereo not drawn) [Boc-blocked Ala-boroPro, Boc-Ala-boroPro]

DPIV enzyme activity in serum [2]: significantly decreased
Molecule: CC(NC(=O)C(N)C1CCCCC1)B(O)O (stereo not drawn) [Cyclohexylglycine-boroAla]

Molecule: O=C(C1CCCN1)N1CCCC1B(O)O (stereo not drawn) [Pro-boro-Pro]
fasting blood sugars [3, 6]: lowers
glycemic excursion to oral glucose challenge [3, 6]: lowers
response to a subtherapeutic dose of GLP-1 ([3]; single injection): potentiate the response
glucose control ([3]; single injection, alone): alone sufficient to improve glucose control

Molecule: CC(C)[C@H](N)C(=O)N1CCC[C@H]1B(O)O [Val-boro-Pro]
recovery of mice that showed signs of diabetes ([4]; 0.034 mg/kg fed every day for 60 days): some of the mice that showed signs of diabetes got better and recovered
incidence of Diabetes ([4]; 0.034 mg/kg fed every day for 60 days, end of the experiment): low incidence of Diabetes
general health compared to the other groups ([4]; end of the experiment): generally good health

Molecule: L-Ala-L-boroPro-pinacol
extent of DP-IV inhibition, silica gel fractions compared ([1]; early fraction vs later fractions at equal concentrations): inhibits DP-IV to a greater extent than later fractions

Molecule: glucagon-like peptide-1 [GLP-1]
degradation ([5]; iv): extensively degraded
degradation without inhibitor ([5]; sc): rapidly degraded in a time-dependent manner

From US8410053B2, “Methods for treating autoimmune disorders, and reagents related thereto” (Trustees of Tufts College, priority 2001, dated 2013)
